Test [1] is described as follows: analgesic activity, acetic acid-induced writhing. It is filed as in vivo, mouse (albino male). As to conditions: mouse, p.o., dose reducing writhing frequency by 50%; 30, 90, 180 minutes after administration. The procedure: Representative compounds were also evaluated for analgesic activity. The evaluation was conducted by using acetic acid-induced writhing in mice as the pain model. Clinically effective analgesis are effective when tested in this model: see Koster et al., "Acetic Acid for Analgesic Screening," 18 Fed. Proc. 412 (1959).
In a method similar to that reported by Koster et al., standard strain albino male mice weighing 20-22 grams were fasted overnight. The respective compound or vehicle (as control) was administered by gastric lavage (p.o.). Each compound was administered in an aqueous suspension of 1% methylcellulose in water. […] At 30, 90, and 180 minutes after administration, writhing was induced by the intraperitoneal administration of 55 mg./kg. of acetic acid (0.55%). Each treatment group consisted of 5 mice and separate groups were examined at each observation time. The total number of writhes for the treatment group were counted in a 10-minute observation period starting 5 minutes after the acetic acid administration. The treatment totals were compared to controls and a percent inhibition calculated as follows: [formula] […] An ED50, which represented the dose that would reduce the writhing frequency by 50%, was estimated from a dose-reponse curve of three or more points. A dose range was reported if only two points were availale for the dose response curve and they bracketed the 50% level. If data was available at 100 mg./kg., only, then the estimated ED50 was reported simply as less than 100 (<100).

Test [2] in a line: antipyretic effect in yeast-induced fever. It is filed as in vivo, rat. The procedure:
(4-(2-Fluorophenyl)phenyl)acetylene was evaluated for antipyretic effect in rats. Fever was induced by subcutaneous injection of yeast, a technique reported at 54 J. Pharm. Exp. Ther. 346 (1935). A total of 24 rats was employed, divided into 6 treatment groups. One group was a normal control, without even the yeast injection. A second group served as a yeast control, receiving yeast injection but none of the test compound. All of the remaining groups received the test compound, in the following pattern: no yeast+100 mg./kg. of compound yeast+100 mg./kg. of compound yeast+50 mg./kg. of compound yeast+10 mg./kg. of compound The procedure was that yeast was administered to all rats at the same time, and temperatures were ascertained two hours later, at which time the test compound was administered to those groups assigned to receive it. Temperatures of all animals were also recorded thereafter at 1.0, 1.5, 2.0, 2.5, and 3.0 hours following administration of the test compound.

A short description of test [3]: ultraviolet-induced erythema blocking test, oral (modified Winder method). It is filed as in vivo, guinea pig (male albino). The following applies: Cavia porcellus, guinea pig, weighted scores 1.0-2.5 h after UV, dose which provides 50% inhibition. The procedure: The compounds of the present invention were evaluated for anti-inflammatoryactivity by the ultraviolet-induced erythema blocking test. The test procedures were a modification of the Winder method (Winder, C. V.; Wax, J.; Burr, V.; Been, M.; and Posiere, C. E.: A Study of Pharmacological Influences on Ultraviolet Erythema in Guinea Pigs. Arch. Int. Pharmacodyn. 116: 261, 1958). Male albino guinea pigs weighing 240-300 gm. were used. The hair on the back was clipped and chemically depilated 15-18 hours before each experiment. The animals were fasted overnight, and on the day of the experiment, were randomized and placed in clear plastic partitioned holders 10×20 cm. wide and 15 cm. high.
The compounds to be tested were suspended in 1% methyl cellulose in water, utilizing a tissue homogenizer. The suspensions were administered orally in a volume of 2.0 ml./kg. of body weight. Control animals received an equal amount of the vehicle.
The source of ultraviolet light was a Hanovia lamp (Kromayer-Model 10). A notebook reinforcement ring was placed upon the lens of the lamp to provide an area of contrast for grading purposes. The lens was then placed in contact with the skin of the guinea pig's back. Exposure time to UV was for a period of 4 seconds. Beginning one hour after exposure and thereafter at half-hour intervals for another 11/2 hours, the degree of resulting erythema was graded by an arbitrary scoring system based upon the degree of contrast and redness formed. Anti-inflammatory agents delay the development of the erythema and have their greatest effect at the initial grading periods. The scores were, therefore, weighted by factors of 4, 3, 2, and 1 at the 1.0, 1.5, 2.0, and 2.5 hour scoring times, respectively. The erythema was graded as follows:
Total scores from each treatment group of four guinea pigs were compared to the scores of the control group. The percent inhibition was calculated as follows: [formula] In the case of compounds showing inhibition, retesting was carried out at a plurality of doses to enable calculation of an ED50 for each such compound. "ED50 " designates that dose which provides 50% inhibition. Calculation of the ED50 was either by a standard linear regression method or by estimation from a dose-response curve of three or more points. The compounds so tested and their ED50 s were as follows: […]

Broadly, the ED50 is the midpoint of the dose-response relation. Read a high ED50 as weaker potency. Consider `C#Cc1ccc(-c2ccccc2F)cc1` [(4-(2-fluorophenyl)phenyl)acetylene], for which, in test [1], the “Estimated ED50” value was 20 mg/kg. For the same molecule, the “Temperatures of rats receiving both yeast and test compound” value in test [2] (10, 50 and 100 mg./kg., all reading times) was “uniformly lower”. The “Temperature change in rats receiving no yeast injection” value in test [2] (no yeast, 100 mg./kg.) is recorded as “some lowering of temperature occurred”. Besides, the “Statistical significance of temperature change in rats receiving no yeast” value in test [2] (no yeast, 100 mg./kg., versus normal control and yeast control groups) is on record as “not statistically significant”. Besides, the Antipyretic action result in test [2] (rats, yeast fever, conclusion) is “exhibited antipyretic action”. Besides, the “Statistical significance of temperature differences, 1.5 hour reading” value in test [2] (yeast rats, 50 mg./kg. and 100 mg./kg., 1.5 hour) is “not statistically significant”. Besides, in test [2] (yeast rats, all dose levels, 1.0 hour), the “Statistical significance of temperature differences, 1.0 hour reading” value is “not statistically significant”. For the same molecule, the “Statistical significance of temperature differences, all other doses” value in test [2] (yeast rats, all other doses/readings) is recorded as “statistically significant”. The same molecule showed an ED50 in test [3] of 0.05 mg/kg.
